# What was measured:
# human mu opioid receptor = biological target: T1, human mu opioid receptor (Homo sapiens, UniProt P35372); assay: Human Mu Opioid Receptor Binding Assay (CHO membranes, 3H-Damgo); conditions: read-out: hKi μ
# T1 construct: purchased Perkin Elmer RBHOMM400UA; host or cells: Chinese Hamster Ovary cells (recombinant expression)
# Method in brief: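 Membranes from CHO cells expressing human mu opioid receptor, 300 μg/mL, in 50 mM Tris pH 7.5, 5 mM MgCl2. Incubated with compound and ³H-Damgo (3.6 nM before mixing) for 2 h at room temperature, filtered, counted by scintillation. Nonspecific binding with 1 μM unlabelled Damgo.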
# [1] = biological target: T2, human delta subtype 2 opioid receptor (Homo sapiens, UniProt P41143); assay: Human Delta Opioid Receptor Binding Assay (CHO membranes, 3H-Naltrindole); conditions: read-out: hKi δ
# T2 construct: purchased Perkin Elmer RBHODM400UA; host or cells: Chinese Hamster Ovary cells (recombinant expression)
# Method in brief: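 Filtration binding on CHO-cell membranes expressing the human receptor, in 50 mM Tris pH 7.5 with 5 mM MgCl2, 30 min at room temperature; 3H-naltrindole diluted to 6 nM before mixing 1:1 with compound. Nonspecific binding defined with 1 μM unlabelled naltrindole; inhibition relative to no-inhibitor wells.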
# [2] = biological target: T3, delta opioid receptor (CHO-hδ cell membranes) (Homo sapiens, UniProt P41143); assay: Delta Opioid Receptor Functional Assay: [35S]GTPγS Binding in CHO-hδ Cell Membranes, Version 1; assay type: biochemical; conditions: read-out: DOR GTP-binding Assay_v1 EC50
# T3 construct: purchased Receptor Biology, Inc. (Baltimore, Md.); host or cells: CHO cells (recombinant expression)
# Protocol: CHO-hδ cell membranes were purchased from Receptor Biology, Inc. (Baltimore, Md.). 10 mg/ml of membrane protein suspended in 10 mM TRIS-HC pH 7.2, 2 mM EDTA, 10% sucrose.
# Membranes were maintained at 4-8° C. A portion (1 ml) of membranes was added into 15 mL cold binding assay buffer. The assay buffer contained 50 mM HEPES, pH 7.6, 5 mM MgCl2, 100 mM NaCl, 1 mM DTT and 1 mM EDTA. The membrane suspension was homogenized with a Polytron for 2 times and centrifuged at 3000 rpm for 10 min. The supernent was then centrifuged at 18,000 rpm for 20 min. The pellet was saved in a tube and 10 ml assay buffer was added into the tube. The pellet and buffer were mixed with a Polytron.
# The pellet membranes (20 μg/ml) were preincubated with SPA (10 mg/ml) at 25° C. for 45 min in the assay buffer. The SPA (5 mg/ml) coupled with membranes (10 μg/ml) was then incubated with 0.5 nM [^35S]GTPγS in the same HEPES buffer containing 50 μM GDP in total volume of 200 μl. Increasing concentrations of receptor agonists were used to stimulate [^35S]GTPγS binding. The basal binding was tested in the absent agonists and no specific binding was tested in the present 10 μM unlabeled GTPγS. The data were analyzed on a Top counter.
# Data The % of Basal=(stimulate−non specific)*100/(basal−non specific). EC50 values were calculated using a Prism program.
# [3] = biological target: T4, mu opioid receptor (CHO-hMOR cell membranes) (Homo sapiens, UniProt P35372); assay: Mu Opioid Receptor Functional Assay: [35S]GTPγS Binding in CHO-hMOR Cell Membranes, Versions 1 and 2; assay type: biochemical; conditions: for MOR GTP binding assay_v1 (% I): version 1, % inhibition of agonist-stimulated GTPγS binding; for MOR GTP assay_v1 % of Basal: version 1, basal binding = 100%
# T4 construct: purchased Receptor Biology, Inc. (Baltimore, Md.); host or cells: CHO cells (recombinant expression)
# Method in brief: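 CHO-hMOR membranes (10 μg/ml) on WGA SPA beads, preincubated 45 min at 25 °C, then incubated with 0.5 nM [35S]GTPγS in HEPES pH 7.6, 5 mM MgCl2, 100 mM NaCl, 1 mM DTT, 1 mM EDTA. Non-specific binding with 10 μM unlabeled GTPγS; agonist EC50 from concentration-response, antagonism as inhibition of 1 μM SNC80-stimulated binding.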
# delta opioid receptor = biological target: T5, delta opioid receptor (Rattus norvegicus, UniProt P33533); assay: Rat Brain Delta Opioid Receptor Binding Assay ([3H]DPDPE); conditions: rat forebrain membranes, margin of error 10-20%, read-out: r Ki δ
# T5 construct: from tissue; host or cells: forebrain of male Wistar rats
# Method in brief: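 Rat (male Wistar) forebrain membranes in 50 mM Tris-HCl pH 7.4 with 5 mM MgCl2, incubated with ~4 nM [3H]DPDPE for 2.5 h at 25 °C. Bound ligand collected by filtration and scintillation counting. Single-concentration data given as % inhibition of specific binding; concentration series fitted to Ki.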
# mu opioid receptor = biological target: T6, mu opioid receptor (Rattus norvegicus, UniProt P33535); assay: Rat Brain Mu Opioid Receptor Binding Assay (and Version 2a, [3H]DAMGO); conditions: rat forebrain membranes, margin of error 10-20%, read-out: r Ki μ
# T6 construct: from tissue; host or cells: forebrain of male Wistar rats
# Method in brief: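 Rat forebrain membranes from male Wistar rats in 50 mM Tris-HCl pH 7.4 with 5 mM MgCl2 incubated with 0.8 nM [3H]DAMGO for 2.5 h at 25° C., then filtered and counted. Data given as % inhibition of specific binding at single concentrations or as Ki from concentration series.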
# [4] = biological target: T7, delta opioid receptor (NG108-15 cell membranes) (Mus musculus, UniProt P32300); assay: Delta Opioid Receptor Functional Assay: [35S]GTPγS Binding in NG108-15 Cell Membranes, Version 2; assay type: biochemical; conditions: NG108-15 cell membranes, version 2
# T7 construct: NG108-15 cell membranes were purchased from Applied Cell Sciences (Rockville, Md.); host or cells: NG108-15 cells (membranes purchased)
# Protocol: NG108-15 cell membranes were purchased from Applied Cell Sciences (Rockville, Md.). 8 mg/ml of membrane protein suspended in 10 mM TRIS-HC pH 7.2, 2 mM EDTA, 10% sucrose.
# Membranes were maintained at 4-8° C. A portion (1 ml) of membranes was added into 10 ml cold binding assay buffer. The assay buffer contained 50 mM Tris, pH 7.6, 5 mM MgCl2, 100 mM NaCl, 1 mM DTT and 1 mM EGTA. The membrane suspension was homogenized with a Polytron for 2 times and centrifuged at 3000 rpm for 10 min. The supernent was then centrifuged at 18,000 rpm for 20 min. The pellet was saved in a tube and 10 ml assay buffer was added into the tube. The pellet and buffer were mixed with a Polytron.
# The pellet membranes (75 μg/ml) were preincubated with SPA (10 mg/ml) at 25° C. for 45 min in the assay buffer. The SPA (5 mg/ml) coupled with membranes (37.5 μg/ml) was then incubated with 0.1 nM [^35S] GTPγS in the same Tris buffer containing 100 μM GDP in total volume of 200 μl. Increasing concentrations of receptor agonists were used to stimulate [^35S] GTPγS binding. The basal binding was tested in the absent agonists and no specific binding was tested in the present 10 μM unlabeled GTPγS. The data were analyzed on a Top counter.
# [formula] % Inhibition=(% stimulation by 1 μM SNC80−% stimulation by 1 μM SNC80 in presence of test compound)×100/(% Stimulation by 1 μM SNC80−100) % of Basal=(stimulate−non specific)*100/(basal−non specific). EC50 values were calculated using GraphPad Prism.
# male CD-1 mice = assay: In Vivo Assay: Upper GI Tract Transit (MUGIT); conditions: Mus musculus, po, 1 h, dose 30 (mg), p.o., read-out: upper GI transit (% ctrl)
# Protocol: Methods: The animals used in these studies were male CD-1 mice, ave. wt. ˜30 g. Mice were housed under 12 h/12 h light/dark cycle, food & water ad lib. On the day of the experiment mice were assigned to experimental groups, including one vehicle-only group (=control). At 30 min before administration of carmine dye, animals were dosed with vehicle or vehicle-plus-compound, mice were returned to their home cages after drug administration. After administration of carmine, the animals were either returned to their home cages (non-stressed) or individually placed in the same metal cages as used in the fecal output or entire GI tract transit to induce a novel environment stress. One hour after administration of carmine, mice were sacrificed by cervical dislocation, the abdomen opened midventrally, the small intestine from pylorus to cecum was removed, the mesentery divided in order to lay the intestine straight & flat—without stretching. The total length of intestine and the length of carmine-dyed intestine were measured in order to determine the percent of the upper GI tract over which transit had occurred as follows: {(Length of carmine-dyed intestine)/(Total length of intestine)}×100=% upper GI transit. The data expressed were group means±SD (or s.e.m.) and data expressed as % of control.
# T4 sequence (P35372 whole entry): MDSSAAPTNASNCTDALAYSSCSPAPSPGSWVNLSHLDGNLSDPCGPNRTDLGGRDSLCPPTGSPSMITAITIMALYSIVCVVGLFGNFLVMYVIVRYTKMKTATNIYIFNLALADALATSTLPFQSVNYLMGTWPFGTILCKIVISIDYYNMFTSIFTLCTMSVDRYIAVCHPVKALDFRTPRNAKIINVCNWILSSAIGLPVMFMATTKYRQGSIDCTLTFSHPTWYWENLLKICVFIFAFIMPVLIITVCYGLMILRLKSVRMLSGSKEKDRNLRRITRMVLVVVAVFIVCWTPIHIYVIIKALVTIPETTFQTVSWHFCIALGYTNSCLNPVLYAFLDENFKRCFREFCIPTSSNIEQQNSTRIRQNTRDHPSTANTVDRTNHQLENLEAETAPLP
# T1 sequence (P35372 whole entry): as above
# T5 sequence (P33533 whole entry): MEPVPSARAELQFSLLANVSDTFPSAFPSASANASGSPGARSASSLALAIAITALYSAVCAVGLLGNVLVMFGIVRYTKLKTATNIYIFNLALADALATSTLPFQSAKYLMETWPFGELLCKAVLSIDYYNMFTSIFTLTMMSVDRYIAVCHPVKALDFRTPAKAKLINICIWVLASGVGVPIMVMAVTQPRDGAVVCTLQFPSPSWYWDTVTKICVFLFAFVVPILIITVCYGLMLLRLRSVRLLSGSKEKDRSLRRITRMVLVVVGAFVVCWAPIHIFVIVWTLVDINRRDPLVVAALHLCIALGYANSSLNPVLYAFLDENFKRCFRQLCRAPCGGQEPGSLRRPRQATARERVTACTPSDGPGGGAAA
# T6 sequence (P33535 whole entry): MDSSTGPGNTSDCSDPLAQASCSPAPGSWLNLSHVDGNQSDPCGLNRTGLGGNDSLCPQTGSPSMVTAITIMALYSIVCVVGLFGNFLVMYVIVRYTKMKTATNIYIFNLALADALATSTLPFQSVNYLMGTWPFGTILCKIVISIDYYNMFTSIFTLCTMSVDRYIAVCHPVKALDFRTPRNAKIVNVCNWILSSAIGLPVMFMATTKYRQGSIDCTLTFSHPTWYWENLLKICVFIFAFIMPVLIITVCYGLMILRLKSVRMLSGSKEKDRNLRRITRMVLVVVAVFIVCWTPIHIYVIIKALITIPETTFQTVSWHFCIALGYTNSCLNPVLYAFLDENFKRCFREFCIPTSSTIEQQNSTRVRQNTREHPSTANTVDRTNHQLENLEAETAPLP
# T3 sequence (P41143 whole entry): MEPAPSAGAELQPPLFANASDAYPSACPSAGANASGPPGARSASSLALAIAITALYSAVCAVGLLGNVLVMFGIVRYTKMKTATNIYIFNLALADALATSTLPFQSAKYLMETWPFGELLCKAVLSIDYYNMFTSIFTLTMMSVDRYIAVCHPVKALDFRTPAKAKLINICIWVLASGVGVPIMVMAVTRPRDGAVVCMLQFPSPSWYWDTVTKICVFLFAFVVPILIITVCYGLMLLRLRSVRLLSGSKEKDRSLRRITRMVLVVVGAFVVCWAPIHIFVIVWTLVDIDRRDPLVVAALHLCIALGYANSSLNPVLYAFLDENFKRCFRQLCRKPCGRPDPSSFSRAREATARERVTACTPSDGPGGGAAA
# T2 sequence (P41143 whole entry): as above
# T7 sequence (P32300 whole entry): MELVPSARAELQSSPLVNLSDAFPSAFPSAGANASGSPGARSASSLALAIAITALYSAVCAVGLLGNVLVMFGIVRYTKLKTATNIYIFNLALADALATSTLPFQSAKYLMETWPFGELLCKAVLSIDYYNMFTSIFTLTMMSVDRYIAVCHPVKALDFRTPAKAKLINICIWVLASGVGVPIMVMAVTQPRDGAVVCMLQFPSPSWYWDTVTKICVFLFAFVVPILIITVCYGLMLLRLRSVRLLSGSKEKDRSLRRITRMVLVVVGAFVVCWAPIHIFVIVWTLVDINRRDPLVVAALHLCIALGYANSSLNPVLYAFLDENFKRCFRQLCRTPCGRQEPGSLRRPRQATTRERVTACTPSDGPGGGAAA
Structure (SMILES),Ki (human mu opioid receptor) [nM],Ki [1] [nM],EC50 [2] [nM],MOR GTP binding assay_v1 (% I) [3] [%],MOR GTP assay_v1 % of Basal [3] [%],Ki (delta opioid receptor) [nM],Ki (mu opioid receptor) [nM],"EC50 ([4]; [35S]GTPγS, read-out: DOR GTP-binding Assay_v2_ EC50) [nM]",DOR GTP-binding Assay v2 (% I) ([4]; % inhibition of agonist-stimulated GTPγS binding) [%],response vs control in vivo at 30 mg (male CD-1 mice) [%]
Cc1cc(O)cc(C)c1C[C@H](N)C(=O)N(Cc1nc(-c2ccccc2F)c(C)[nH]1)C(C)C [Cpd 117],0.24,118,37,3.31,816.16,–,–,–,–,–
C[C@@H](c1nc(-c2ccccc2)c[nH]1)N(C)C(=O)[C@@H](N)Cc1ccc(C(N)=O)cc1 [Cpd 202],–,–,1580,1.00,529.00,31.5,5.9,–,–,–
Cc1cc(O)cc(C)c1C[C@H](N)C(=O)N(Cc1nc(-c2cncnc2)c(C)[nH]1)C(C)C [Cpd 131],3.1,675,99,28.64,391.98,–,–,–,–,–
Cc1cc(O)cc(C)c1C[C@H](N)C(=O)N(Cc1nc(-c2cccc(CO)c2)c(C)[nH]1)C(C)C [Cpd 130],1.6,712,16,1.62,866.39,–,–,–,–,–
CCN(C(=O)[C@@H](N)Cc1c(C)cc(C(N)=O)cc1C)[C@@H](C)c1nc(-c2ccccc2)c[nH]1 [Cpd 197],–,–,140,1.00,582.00,4.27,0.9,–,–,–
Cc1cc(O)cc(C)c1C[C@H](N)C(=O)N(Cc1ccc(C(=O)O)o1)[C@@H](C)c1nc(-c2ccccc2)c[nH]1 [Cpd 287],–,–,–,–,–,0.14,0.13,> 10000,84.50,66.4
Cc1cc(O)cc(C)c1C[C@H](N)C(=O)N(Cc1nc(-c2ccccc2C(F)(F)F)c(C)[nH]1)C(C)C [Cpd 151],–,1300,350,24.19,606.38,–,–,–,–,–
Cc1cc(O)cc(C)c1C[C@H](N)C(=O)N(Cc1nc(-c2ccc(Cl)cc2)c(C)[nH]1)C(C)C [Cpd 147],–,241,51,1.00,779.35,–,–,–,–,–
Cc1cc(O)cc(C)c1C[C@H](N)C(=O)N(Cc1nc(-c2ccc3ccccc3c2)c(C)[nH]1)C(C)C [Cpd 150],–,992,49,53.35,476.63,–,–,–,–,–
Cc1cc(O)cc(C)c1C[C@H](N)C(=O)N(Cc1nc(-c2ccc(C(F)(F)F)cc2)c(C)[nH]1)C(C)C [Cpd 149],–,408,44,1.00,753.53,–,–,–,–,–
Cc1cc(O)cc(C)c1C[C@H](N)C(=O)N(Cc1nc(-c2ccsc2)c(C)[nH]1)C(C)C [Cpd 146],–,71,27,2.79,740.77,–,–,–,–,–
CCN(C(=O)[C@@H](N)Cc1c(C)cc(O)cc1C)[C@H](c1nc(-c2ccccc2)c[nH]1)C(C)C [Cpd 170],–,–,115,26.00,–,32.6,0.48,–,–,–
